Data: patent US12370265B2, “Hydrogel for in-vivo release of medication” (UMC Utrecht Holding B.V., priority 2019, dated 2025)

Columns and labels:
[1] = local anaesthetic; cited from earlier work
[2] = Directional release from hydrogel coated with PCL on one side, in 3% alginate gel; format: physicochemical
Protocol: Release of methylene blue from the hydrogel was simulated in a 3% alginate gel, cross-linked with calcium chloride to obtain a tissue-like consistency. Only the top part of the hydrogel was coated with PCL. The samples were inspected at 0, 1, 2, and 3 hours. Hydrogels were positioned vertically to eliminate any effect of gravity on the direction of release. […] The same experiment was performed with bupivacaine.

cumulative release ([2]; from the PCL-covered direction, after 8 hours): about 2 mg
time to reach cumulative release of about 2 mg ([2]; non-PCL covered direction): ≤ 1 h
SMILES: CCCCN1CCCCC1C(=O)Nc1c(C)cccc1C (stereo not drawn) [bupivacaine]
duration of its effect [1]: approx. 8 hours
